Reference: patent US20140155609A9, “QUINOLINE DERIVATIVE COMPOUND, METHOD FOR PREPARING SAME, AND PHARMACEUTICAL COMPOSITION CONTAINING SAME” (Dong-A ST Co., Ltd., priority 2010, published 2014)

How the values were obtained:
[1] = molecular target: T1, human dopamine D2 receptor (Homo sapiens, UniProt P14416); test: Assay for affinity for dopamine receptor (3H-spiperone competitive binding); details: 10 μM compound; 0.16 nM tritium spiperone; CHO cells transfected with human dopamine D2; mean of two experiments
T1 construct: expressed in transfected cells; host or cells: CHO (Chinese hamster ovary) cells
T1 sequence (P14416 whole entry): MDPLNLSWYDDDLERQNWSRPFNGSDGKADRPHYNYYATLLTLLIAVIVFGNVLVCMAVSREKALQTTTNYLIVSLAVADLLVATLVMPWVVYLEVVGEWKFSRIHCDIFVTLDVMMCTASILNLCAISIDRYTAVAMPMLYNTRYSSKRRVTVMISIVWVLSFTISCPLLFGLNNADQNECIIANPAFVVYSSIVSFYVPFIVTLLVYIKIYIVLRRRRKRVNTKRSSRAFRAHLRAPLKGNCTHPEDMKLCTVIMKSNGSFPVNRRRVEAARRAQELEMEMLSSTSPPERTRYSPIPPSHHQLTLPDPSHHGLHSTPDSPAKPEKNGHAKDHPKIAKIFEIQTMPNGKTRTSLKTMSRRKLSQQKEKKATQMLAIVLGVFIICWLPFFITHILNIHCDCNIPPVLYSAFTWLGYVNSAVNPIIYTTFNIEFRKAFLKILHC
Description: Affinity of the compounds of the present invention for the dopamine-D2 receptor, which is found in the wall of the gastric tract of mammals and inhibits gastric motility, was determined by measuring competitive inhibition against the binding to the receptor of a radio-labeled ligand which is known for its affinity for the receptor. In this regard, the experiment was performed according to the method described in [Heys G et al. Mol. Endocrinol. 6:920, 1992] and [Grandy D K et al. Proc Natl Acad Sci USA. 86:9762, 1989].
In tris-HCl buffer ([…], pH 7.4, 120 mM NaCl, 5 mM KCl, 2 mM CaCl2, 1 mM MgCl2) 150 μg of Chinese hamster ovary (CHO) cells transfected with a human dopamine D2, gene were incubated at 25° C. for 120 min with 0.16 nM of tritium Spiperone (^3[H] Spiperon [NEN, 250 μCi]) and 10 μM of the compound of interest. After completion of the incubation, the incubation mixture was filtered through Whatman GF/B filter (unifilter-96 Lot: 6005177, PerkinElmer) to separate ligand-bound receptors. […] Then, 10 mL of a scintillation cocktail (Lot: 03999, Fluka) was added and reacted for 16 hrs or longer to measure radiation activity using a beta-counter (Packcard) in order to calculate the quantity of tritium spiperone bound to the receptor. […] The experiment was independently carried out twice, and receptor affinity was calculated using the following Equation 1. […]

human 5-HT1A receptor = molecular target: T2, human 5-HT1A receptor (Homo sapiens, UniProt P08908); test: Assay for affinity for serotonin-1A receptor (3H 8-OH-DPAT competitive binding); details: 10 μM compound; 1.5 nM 3[H] 8-OH-DPAT; CHO cells transfected with human 5-HT1A receptor; mean of two experiments
T2 construct: expressed in transfected cells; host or cells: CHO (Chinese hamster ovary) cells
T2 sequence (P08908 1-422): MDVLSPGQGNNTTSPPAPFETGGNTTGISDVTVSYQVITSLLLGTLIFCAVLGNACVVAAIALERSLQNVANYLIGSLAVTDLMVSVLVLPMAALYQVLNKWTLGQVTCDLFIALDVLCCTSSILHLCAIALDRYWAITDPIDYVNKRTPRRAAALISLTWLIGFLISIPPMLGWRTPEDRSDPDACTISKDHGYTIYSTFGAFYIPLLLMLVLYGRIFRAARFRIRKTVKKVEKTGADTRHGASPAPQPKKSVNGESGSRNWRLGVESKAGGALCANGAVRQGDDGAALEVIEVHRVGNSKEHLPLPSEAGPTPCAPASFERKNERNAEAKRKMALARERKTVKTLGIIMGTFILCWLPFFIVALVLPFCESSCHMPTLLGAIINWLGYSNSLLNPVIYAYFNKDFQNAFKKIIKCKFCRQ
Description: Compounds of the present invention were examined for affinity for the serotonin-1A receptor which can increase gastric accommodation in response to an agonist.
In tris-HCl buffer (50 mM Tris-HCl, pH 7.4, 120 mM NaCl, 5 mM KCl, 2 mM CaCl2, 1 mM MgCl2), 150 μg of Chinese hamster ovary (CHO) cells transfected with a human […] 5-HT1A receptor were incubated at 37° C. for 1.5 hrs with 1.5 nM of ^3[H] 8-OH-DPAT and 10 μM of the compound of interest of Example. After completion of the incubation, the incubation mixture was filtered through Whatman GF/B filter (unifilter-96, Lot: 6005177, PerkinElmer) to separate ligand-bound receptors. These bound receptors were washed three times with 5 mL of a Tris-HCl buffer. Then, 10 mL of a scintillation cocktail (Lot: 03999, Fluka) was added, and reacted for 16 hrs or longer with to measure radiation activity using a beta-counter (Packcard) in order to calculate the quantity of ^3[H] 8-OH-DPAT bound to the receptor.
Meanwhile, 10 μM of metergoline was also incubated in the presence of 1.5 nM of ^3[H] 8-OH-DPAT to determine a nonspecific binding value. The experiment was independently carried out twice, and receptor affinity was calculated using the following Equation 2. […]

serotonin-1B receptor = molecular target: T3, serotonin-1B receptor (Rattus norvegicus, UniProt P28564); test: Assay for affinity for serotonin-1B receptor (125I cyanopindolol binding, rat cerebral cortex membranes); details: 10 μM compound, mean of two experiments
T3 construct: cell membranes of the cerebral cortex excised from male Winstar rats; from tissue; host or cells: rat cerebral cortex membranes (male Wistar rats)
T3 sequence (P28564 whole entry): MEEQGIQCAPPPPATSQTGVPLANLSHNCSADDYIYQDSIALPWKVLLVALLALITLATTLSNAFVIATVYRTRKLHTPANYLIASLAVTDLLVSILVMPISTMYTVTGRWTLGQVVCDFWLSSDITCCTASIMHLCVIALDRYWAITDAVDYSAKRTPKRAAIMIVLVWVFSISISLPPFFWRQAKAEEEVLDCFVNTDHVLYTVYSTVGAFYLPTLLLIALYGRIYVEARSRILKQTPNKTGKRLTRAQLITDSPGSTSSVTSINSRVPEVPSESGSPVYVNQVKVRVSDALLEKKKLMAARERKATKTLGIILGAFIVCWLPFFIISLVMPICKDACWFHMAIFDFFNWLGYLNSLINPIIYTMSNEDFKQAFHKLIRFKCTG
Description: Compounds of the present invention were examined for affinity for the serotonin-1B receptor which can exert a relaxation effect on the stomach and relieve impaired gastric accommodation of functional dyspepsia patients in response to an agonist.
In a Tris-HCl buffer (50 mM Tris-HCl, pH 7.4, 120 mM NaCl, 5 mM KCl, 2 mM CaCl2, 1 mM MgCl2), 4 mg of cell membranes of the cerebral cortex excised from male Winstar rats, each weighing 175±25 g, was incubated at 37° C. for 1.5 hrs with […] of ^125[I] cyanopindolol (PerkinElmer, 100 μCi) and 10 μM of the compound of interest of the present invention per well. After completion of the incubation, the incubation mixture was filtered through Whatman GF/B filter (unifilter-96, Lot: 6005177, PerkinElmer) to separate ligand-bound receptors. These bound receptors were washed three times with 5 mL of a Tris-HCl buffer. Then, 10 mL of a scintillation cocktail (Lot: 03999, Fluka) was added, and reacted for 16 hrs or to measure a radiation activity using a beta-counter (Packcard) in order to calculate the quantity of ^125[I] cyanopindolol bound to the receptor.
Meanwhile, 10 μM of serotonin (H9523, Sigma) was incubated in the presence of […] of ^125[I] cyanopindolol to determine a nonspecific binding value. The experiment was independently carried out twice, and receptor affinity was calculated using the following Equation 3. […]

normal rat = test: Gastric emptying effect on normal rat; assay type: in vivo, Sprague-Dawley rats
Description: Gastric emptying activity of the compounds of the present invention was examined in the following experiment.
Sprague-Dawley rats with an age of 6 weeks were divided into groups according to weight, and acclimated for one week at a temperature of 22˜24° C. and a humidity of 60-80% while a standard diet and water were provided. Thereafter, they were starved for 24 hrs before an experiment while water was provided. From 3 hrs before the experiment, no more water was provided. A 3% hydroxy propyl methyl cellulose solution containing the compound of Example in an amount of 10 μg/kg was orally administered at a dose of 1 mL to each rat.
After 45 min, a semi-solid test meal (0.05% phenol red solution containing 1.5% MC), prepared by mashing feeds in water, was orally administered in an amount of 2 mL to each rat. After 35 min, the SD rats were killed, and the stomach was excised, and weighed carefully lest the gut content was leaked. Subsequently, the stomach was washed with distilled water to remove the gut content, dried, and weighed again, in order to calculate the weight of the semi-solid test meal left in the gut. In Table 4, the control was orally administered with 1 mL of 3% […].
Gastric Emptying(%)=[1−(weight of semi-solid test meal left in gut/weight of semi-solid test meal at 0-time)]×100 [Equation 4] […]

With CCOC(=O)CCC(=O)N1CCc2cc(OC)c(OC)c3c2[C@@H]1Cc1cc(OC)c(OC)cc1-3 [Example 1, (S)-4-oxo-4-(1,2,9,10-tetramethoxy-4,5,6a,7-tetrahydro-dibenzo[de,g]quinoline-6-yl)-butyric acid ethyl ester] the “Affinity (%)” value [1] was 46%, the “Affinity (%)” value (human 5-HT1A receptor) was 41% and the “Affinity (%)” value (serotonin-1B receptor) was 92%. For the same compound, the “Gastric Emptying (%)” value (normal rat; dose 10 μg/kg oral, 45 min before semi-solid test meal, stomach excised 35 min after meal, control 24.3) was 47.8% and the “increase of gastric emptying compared to the control” value (normal rat; normal rats, oral dose 10 μg/kg) was “roughly two-fold”.
